Assay results published in patent US20230141603A1, “BENZODIAZEPINE DERIVATIVES AS GABA A GAMMA1 PAM” (Hoffmann-La Roche Inc., priority 2021, published 2023).

Assays:
h-GABAA α1β3γ2 = target: T1, h-GABAA α1β3γ2 (Homo sapiens, UniProt P14867+P18507); test: Radioligand binding assay, [3H]Flumazenil competition, HEK293F membranes; details: for γ2/γ1 Selectivity Ratio: Ki α1β3γ2 (nM)/Ki α2β2γ1 (nM); for LogSel: Log[Ki α1β3γ2 (nM)/Ki α2β2γ1 (nM)]
T1 construct: expressed in transfected cells; host or cells: HEK293F cells, membranes
Outline: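 [3H]Flumazenil competition binding on membranes from HEK293F cells transiently expressing human α1β3γ2 receptors. Incubation to equilibrium for 1 h at 4 °C, then filtration and scintillation counting. Ki is the mean of two determinations.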

h-GABAA α2β2γ1 = target: T2, h-GABAA α2β2γ1 (Homo sapiens, UniProt P47869+Q8N1C3); test: Two-electrode voltage clamp electrophysiology in Xenopus oocytes, modulation of GABA EC20 current; assay type: cell-based; parameters: host or cells: Xenopus laevis oocytes, RNA micro-injection; details: Table 2; for Efficacy (GABA)%: % modulation of GABA EC20 = 100*(Fold increase−1), compound at approx. 30-fold Ki; for Fold increase h-GABA-A α2β2γ1 oocyte @ 30-fold Ki: compound at approx. 30-fold its Ki α2β2γ1, GABA EC20, Xenopus oocytes
T2 sequence (P47869 29-451): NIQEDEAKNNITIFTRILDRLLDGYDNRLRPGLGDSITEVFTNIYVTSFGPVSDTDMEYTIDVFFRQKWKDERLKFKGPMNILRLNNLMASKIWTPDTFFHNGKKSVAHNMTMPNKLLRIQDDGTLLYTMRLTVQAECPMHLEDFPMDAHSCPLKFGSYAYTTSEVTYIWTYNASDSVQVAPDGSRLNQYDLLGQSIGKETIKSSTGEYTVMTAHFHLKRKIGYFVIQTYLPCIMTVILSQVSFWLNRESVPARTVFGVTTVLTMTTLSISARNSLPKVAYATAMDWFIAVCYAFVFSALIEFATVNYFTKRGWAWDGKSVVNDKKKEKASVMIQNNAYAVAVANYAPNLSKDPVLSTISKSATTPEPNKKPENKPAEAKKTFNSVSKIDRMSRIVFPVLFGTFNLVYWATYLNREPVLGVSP
T2 sequence (P47870 25-512 partner limits assumed): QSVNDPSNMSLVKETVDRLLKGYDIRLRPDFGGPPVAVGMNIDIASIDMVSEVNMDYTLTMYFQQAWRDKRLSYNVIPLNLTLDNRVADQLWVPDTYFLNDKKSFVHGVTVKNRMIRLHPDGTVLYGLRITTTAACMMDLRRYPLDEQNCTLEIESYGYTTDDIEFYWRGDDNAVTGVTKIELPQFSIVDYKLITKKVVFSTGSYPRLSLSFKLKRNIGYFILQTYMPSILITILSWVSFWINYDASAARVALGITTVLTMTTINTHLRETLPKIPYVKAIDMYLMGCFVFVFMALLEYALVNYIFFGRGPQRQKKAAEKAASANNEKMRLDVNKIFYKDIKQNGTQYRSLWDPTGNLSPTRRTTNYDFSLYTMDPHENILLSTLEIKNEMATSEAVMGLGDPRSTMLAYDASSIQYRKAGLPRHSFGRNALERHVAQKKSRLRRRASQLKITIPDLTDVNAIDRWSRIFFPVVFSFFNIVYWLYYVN
T2 sequence (Q8N1C3 36-465): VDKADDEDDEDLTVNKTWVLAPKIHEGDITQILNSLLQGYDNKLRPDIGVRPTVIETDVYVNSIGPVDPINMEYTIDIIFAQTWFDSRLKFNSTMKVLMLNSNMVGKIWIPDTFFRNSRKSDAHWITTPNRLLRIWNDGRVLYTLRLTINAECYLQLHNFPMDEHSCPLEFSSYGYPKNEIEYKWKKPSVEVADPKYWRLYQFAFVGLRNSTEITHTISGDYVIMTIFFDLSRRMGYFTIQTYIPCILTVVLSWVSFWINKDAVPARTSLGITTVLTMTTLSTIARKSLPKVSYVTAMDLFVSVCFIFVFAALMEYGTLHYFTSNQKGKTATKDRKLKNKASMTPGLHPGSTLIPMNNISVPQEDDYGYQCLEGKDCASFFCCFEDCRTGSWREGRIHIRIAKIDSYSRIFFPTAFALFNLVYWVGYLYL
Outline: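 Oocytes injected with receptor subunit mRNA were recorded 3–5 days later by two-electrode voltage clamp at −80 mV, room temperature, pH 7.4. Compound was applied during a second GABA EC20 pulse, with at least 3 oocytes per concentration. Efficacy is the ratio-trace extremum, expressed as % modulation of GABA EC20.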

Fc1ccccc1C1=NCc2nnc(-c3cccnn3)n2-c2ccc(C(F)(F)F)c(Cl)c21 [Example 27, 7-chloro-6-(2-fluorophenyl)-1-pyridazin-3-yl-8-(trifluoromethyl)-4H-[1,2,4]triazolo[4,3-a][1,4]benzodiazepine]
Ki (h-GABAA α1β3γ2): 4.8 µM
γ2/γ1 Selectivity Ratio (h-GABAA α1β3γ2; Table 1): 56.7
LogSel (h-GABAA α1β3γ2; Table 1): 1.75
Efficacy (GABA)% (h-GABAA α2β2γ1): 71%
Fold increase h-GABA-A α2β2γ1 oocyte @ 30-fold Ki (h-GABAA α2β2γ1): 1.71

Cn1cc(-c2nnc3n2-c2ccc(Cl)c(Cl)c2C(c2c(F)cccc2F)=NC3)cn1 [Example 28, 7,8-dichloro-6-(2,6-difluorophenyl)-1-(1-methylpyrazol-4-yl)-4H-[1,2,4]triazolo[4,3-a][1,4]benzodiazepine]
Ki (h-GABAA α1β3γ2): 0.293 µM
γ2/γ1 Selectivity Ratio (h-GABAA α1β3γ2; Table 1): 31.1
LogSel (h-GABAA α1β3γ2; Table 1): 1.49
Efficacy (GABA)% (h-GABAA α2β2γ1): 59%
Fold increase h-GABA-A α2β2γ1 oocyte @ 30-fold Ki (h-GABAA α2β2γ1): 1.59

Fc1cccnc1C1=NCc2nncn2-c2ccc(Br)c(Cl)c21 [Example 29, 8-bromo-7-chloro-6-(3-fluoro-2-pyridyl)-4H-[1,2,4]triazolo[4,3-a][1,4]benzodiazepine]
Ki (h-GABAA α1β3γ2): 0.789 µM
γ2/γ1 Selectivity Ratio (h-GABAA α1β3γ2; Table 1): 16.6
LogSel (h-GABAA α1β3γ2; Table 1): 1.22
Efficacy (GABA)% (h-GABAA α2β2γ1): 105%
Fold increase h-GABA-A α2β2γ1 oocyte @ 30-fold Ki (h-GABAA α2β2γ1): 2.05

OCc1nnc2n1-c1ccc(Br)c(Cl)c1C(c1c(F)cccc1F)=NC2 [Example 33, [8-bromo-7-chloro-6-(2,6-difluorophenyl)-4H-[1,2,4]triazolo[4,3-a][1,4]benzodiazepin-1-yl]methanol]
Ki (h-GABAA α1β3γ2): 0.232 µM
γ2/γ1 Selectivity Ratio (h-GABAA α1β3γ2; Table 1): 18.2
LogSel (h-GABAA α1β3γ2; Table 1): 1.26
Efficacy (GABA)% (h-GABAA α2β2γ1): 80%
Fold increase h-GABA-A α2β2γ1 oocyte @ 30-fold Ki (h-GABAA α2β2γ1): 1.80

Fc1cccc(F)c1C1=NCc2nncn2-c2ccc(I)c(Cl)c21 [Example 34, 7-chloro-6-(2,6-difluorophenyl)-8-iodo-4H-[1,2,4]triazolo[4,3-a][1,4]benzodiazepine]
Ki (h-GABAA α1β3γ2): 0.161 µM
γ2/γ1 Selectivity Ratio (h-GABAA α1β3γ2; Table 1): 15.9
LogSel (h-GABAA α1β3γ2; Table 1): 1.20
Efficacy (GABA)% (h-GABAA α2β2γ1): 81%
Fold increase h-GABA-A α2β2γ1 oocyte @ 30-fold Ki (h-GABAA α2β2γ1): 1.81

Cl.NCc1nnc2n1-c1ccc(Br)c(Cl)c1C(c1c(F)cccc1F)=NC2 [Example 36, [8-bromo-7-chloro-6-(2,6-difluorophenyl)-4H-[1,2,4]triazolo[4,3-a][1,4]benzodiazepin-1-yl]methanamine hydrochloride]
Ki (h-GABAA α1β3γ2): 0.18 µM
γ2/γ1 Selectivity Ratio (h-GABAA α1β3γ2; Table 1): 21.2
LogSel (h-GABAA α1β3γ2; Table 1): 1.33
Efficacy (GABA)% (h-GABAA α2β2γ1): 33%
Fold increase h-GABA-A α2β2γ1 oocyte @ 30-fold Ki (h-GABAA α2β2γ1): 1.33

Fc1cccc(F)c1C1=NCc2nncn2-c2ccc(C(F)(F)F)c(Cl)c21 [Example 37, 7-chloro-6-(2,6-difluorophenyl)-8-(trifluoromethyl)-4H-[1,2,4]triazolo[4,3-a][1,4]benzodiazepine]
Ki (h-GABAA α1β3γ2): 1.18 µM
γ2/γ1 Selectivity Ratio (h-GABAA α1β3γ2; Table 1): 28.5
LogSel (h-GABAA α1β3γ2; Table 1): 1.45
Efficacy (GABA)% (h-GABAA α2β2γ1): 67%
Fold increase h-GABA-A α2β2γ1 oocyte @ 30-fold Ki (h-GABAA α2β2γ1): 1.67

Fc1cccc(F)c1C1=NCc2nnc(-c3cccnn3)n2-c2ccc(C(F)(F)F)c(Cl)c21 [Example 38, 7-chloro-6-(2,6-difluorophenyl)-1-pyridazin-3-yl-8-(trifluoromethyl)-4H-[1,2,4]triazolo[4,3-a][1,4]benzodiazepine]
Ki (h-GABAA α1β3γ2): 1.43 µM
γ2/γ1 Selectivity Ratio (h-GABAA α1β3γ2; Table 1): 113.4
LogSel (h-GABAA α1β3γ2; Table 1): 2.05
Efficacy (GABA)% (h-GABAA α2β2γ1): 114%
Fold increase h-GABA-A α2β2γ1 oocyte @ 30-fold Ki (h-GABAA α2β2γ1): 2.14

Fc1cccc(F)c1C1=NCc2nnc(-c3cccnn3)n2-c2ccc(I)c(Cl)c21 [Example 39, 7-chloro-6-(2,6-difluorophenyl)-8-iodo-1-pyridazin-3-yl-4H-[1,2,4]triazolo[4,3-a][1,4]benzodiazepine]
Ki (h-GABAA α1β3γ2): 0.36 µM
γ2/γ1 Selectivity Ratio (h-GABAA α1β3γ2; Table 1): 85.8
LogSel (h-GABAA α1β3γ2; Table 1): 1.93
Efficacy (GABA)% (h-GABAA α2β2γ1): 133%
Fold increase h-GABA-A α2β2γ1 oocyte @ 30-fold Ki (h-GABAA α2β2γ1): 2.33

Cc1nnc2n1-c1ccc(C(F)(F)F)c(Cl)c1C(c1c(F)cccc1F)=NC2 [Example 40, 7-chloro-6-(2,6-difluorophenyl)-1-methyl-8-(trifluoromethyl)-4H-[1,2,4]triazolo[4,3-a][1,4]benzodiazepine]
Ki (h-GABAA α1β3γ2): 1.01 µM
γ2/γ1 Selectivity Ratio (h-GABAA α1β3γ2; Table 1): 37.5
LogSel (h-GABAA α1β3γ2; Table 1): 1.57
γ2/γ1 Selectivity Ratio (h-GABAA α1β3γ2; Table 3): 37.5
LogSel (h-GABAA α1β3γ2; Table 3): 1.6
Efficacy (GABA)% (h-GABAA α2β2γ1): 75%
Fold increase h-GABA-A α2β2γ1 oocyte @ 30-fold Ki (h-GABAA α2β2γ1): 1.75

Cc1nnc2n1-c1ccc(I)c(Cl)c1C(c1c(F)cccc1F)=NC2 [Example 41, 7-chloro-6-(2,6-difluorophenyl)-8-iodo-1-methyl-4H-[1,2,4]triazolo[4,3-a][1,4]benzodiazepine]
Ki (h-GABAA α1β3γ2): 0.121 µM
γ2/γ1 Selectivity Ratio (h-GABAA α1β3γ2; Table 1): 21.9
LogSel (h-GABAA α1β3γ2; Table 1): 1.34
Efficacy (GABA)% (h-GABAA α2β2γ1): 70%
Fold increase h-GABA-A α2β2γ1 oocyte @ 30-fold Ki (h-GABAA α2β2γ1): 1.70

Fc1cccc(F)c1C1=NCc2nnc(-c3cccnn3)n2-c2ccc(Br)c(Br)c21 [Example 42, 7,8-dibromo-6-(2,6-difluorophenyl)-1-pyridazin-3-yl-4H-[1,2,4]triazolo[4,3-a][1,4]benzodiazepine]
Ki (h-GABAA α1β3γ2): 0.243 µM
γ2/γ1 Selectivity Ratio (h-GABAA α1β3γ2; Table 1): 44.2
LogSel (h-GABAA α1β3γ2; Table 1): 1.65
Efficacy (GABA)% (h-GABAA α2β2γ1): 97%
Fold increase h-GABA-A α2β2γ1 oocyte @ 30-fold Ki (h-GABAA α2β2γ1): 1.97

Fc1cccc(F)c1C1=NCc2nnc(-c3ccncn3)n2-c2ccc(Br)c(Br)c21 [Example 43, 7,8-dibromo-6-(2,6-difluorophenyl)-1-pyrimidin-4-yl-4H-[1,2,4]triazolo[4,3-a][1,4]benzodiazepine]
Ki (h-GABAA α1β3γ2): 0.51 µM
γ2/γ1 Selectivity Ratio (h-GABAA α1β3γ2; Table 1): 88.5
LogSel (h-GABAA α1β3γ2; Table 1): 1.95
Efficacy (GABA)% (h-GABAA α2β2γ1): 23%
Fold increase h-GABA-A α2β2γ1 oocyte @ 30-fold Ki (h-GABAA α2β2γ1): 1.23

Clc1cccnc1C1=NCc2nnc(-c3ccncn3)n2-c2ccc(Br)c(Cl)c21 [Example 44, 8-bromo-7-chloro-6-(3-chloro-2-pyridyl)-1-pyrimidin-4-yl-4H-[1,2,4]triazolo[4,3-a][1,4]benzodiazepine]
Ki (h-GABAA α1β3γ2): 0.276 µM
γ2/γ1 Selectivity Ratio (h-GABAA α1β3γ2; Table 1): 28.6
LogSel (h-GABAA α1β3γ2; Table 1): 1.46
Efficacy (GABA)% (h-GABAA α2β2γ1): 62%
Fold increase h-GABA-A α2β2γ1 oocyte @ 30-fold Ki (h-GABAA α2β2γ1): 1.62

Fc1cccnc1C1=NCc2nnc(-c3cccnn3)n2-c2ccc(Br)c(Cl)c21 [Example 45, 8-bromo-7-chloro-6-(3-fluoro-2-pyridyl)-1-pyridazin-3-yl-4H-[1,2,4]triazolo[4,3-a][1,4]benzodiazepine]
Ki (h-GABAA α1β3γ2): 1.22 µM
γ2/γ1 Selectivity Ratio (h-GABAA α1β3γ2; Table 1): 77.7
LogSel (h-GABAA α1β3γ2; Table 1): 1.89
Efficacy (GABA)% (h-GABAA α2β2γ1): 828%
Fold increase h-GABA-A α2β2γ1 oocyte @ 30-fold Ki (h-GABAA α2β2γ1): 9.28

Fc1cccnc1C1=NCc2nnc(-c3ccncn3)n2-c2ccc(Br)c(Cl)c21 [Example 46, 8-bromo-7-chloro-6-(3-fluoro-2-pyridyl)-1-pyrimidin-4-yl-4H-[1,2,4]triazolo[4,3-a][1,4]benzodiazepine]
Ki (h-GABAA α1β3γ2): 1.16 µM
γ2/γ1 Selectivity Ratio (h-GABAA α1β3γ2; Table 1): 45.8
LogSel (h-GABAA α1β3γ2; Table 1): 1.66
Efficacy (GABA)% (h-GABAA α2β2γ1): 55%
Fold increase h-GABA-A α2β2γ1 oocyte @ 30-fold Ki (h-GABAA α2β2γ1): 1.55

Clc1cccnc1C1=NCc2nnc(-c3cccnn3)n2-c2ccc(Br)c(Cl)c21 [Example 47, 8-bromo-7-chloro-6-(3-chloro-2-pyridyl)-1-pyridazin-3-yl-4H-[1,2,4]triazolo[4,3-a][1,4]benzodiazepine]
Ki (h-GABAA α1β3γ2): 0.222 µM
γ2/γ1 Selectivity Ratio (h-GABAA α1β3γ2; Table 1): 14.0
LogSel (h-GABAA α1β3γ2; Table 1): 1.15
Efficacy (GABA)% (h-GABAA α2β2γ1): 314%
Fold increase h-GABA-A α2β2γ1 oocyte @ 30-fold Ki (h-GABAA α2β2γ1): 4.14
